According to ChEMBL document CHEMBL1144002, “N6-substituted C5'-modified adenosines as A1 adenosine receptor agonists” (Bioorg Med Chem, 2008):
pIC50, pKi: −log10 of the molar value.

What was measured:
[1] = target: Adenosine receptor A1 (Mesocricetus auratus); experiment: Displacement of [3H]CPX from adenosine A1 receptor in DDT1MF-2 cells
[2] = tested on: Adenosine receptor A1 (Mesocricetus auratus); experiment: Intrinsic activity at adenosine A1 receptor assessed as maximal inhibition of isoproterenol-stimulated cAMP accumulation in DDT1MF-2 cells relative to CPA
[3] = target: Adenosine receptor A1 (Mesocricetus auratus); experiment: Agonist activity at adenosine A1 receptor assessed as inhibition of isoproterenol-stimulated cAMP accumulation in DDT1MF-2 cells
[4] = tested on: Adenosine receptor A1 (Mesocricetus auratus); experiment: Ratio of Ki to IC50 for adenosine A1 receptor

| pKi [1] | Intrinsic activity [2] | pIC50 [3] | Ratio [4] | Structure (SMILES) |
| --- | --- | --- | --- | --- |
| 6.55 | 1 | 6.65 | 1.3 | O[C@@H]1[C@H](O)[C@@H](CS)O[C@H]1n1cnc2c(N[C@H]3C[C@H]4CC[C@H]3C4)ncnc21 |
| < 5.00 | 0.83 | 6.06 | 1.3 | CNC[C@H]1O[C@@H](n2cnc3c(N[C@H]4C[C@H]5CC[C@H]4C5)ncnc32)[C@H](O)[C@@H]1O |
| 5.14 | 0.91 | 5.31 | 1.3 | CCCNC[C@H]1O[C@@H](n2cnc3c(N[C@H]4C[C@H]5CC[C@H]4C5)ncnc32)[C@H](O)[C@@H]1O |
| 5.23 | 0.97 | 6.22 | 1.3 | CC(=O)NC[C@H]1O[C@@H](n2cnc3c(N[C@H]4C[C@H]5CC[C@H]4C5)ncnc32)[C@H](O)[C@@H]1O |
| 5.41 | 0.92 | 6.45 | 1.3 | NC[C@H]1O[C@@H](n2cnc3c(N[C@H]4C[C@H]5CC[C@H]4C5)ncnc32)[C@H](O)[C@@H]1O |
| 7.77 | 0.97 | 8.15 | 1.3 | O[C@@H]1[C@H](O)[C@@H](CF)O[C@H]1n1cnc2c(N[C@H]3C[C@H]4CC[C@H]3C4)ncnc21 |
| 6.91 | 1.04 | 7.55 | 1.3 | CCSC[C@H]1O[C@@H](n2cnc3c(N[C@H]4C[C@H]5CC[C@H]4C5)ncnc32)[C@H](O)[C@@H]1O |

| Structure (SMILES) | pKi [1] | Intrinsic activity [2] | pIC50 [3] | Ratio [4] |
| --- | --- | --- | --- | --- |
| CCSC[C@H]1O[C@@H](n2cnc3c(NC4CCCC4)ncnc32)[C@H](O)[C@@H]1O | 6.76 | 1.02 | 7.68 | – |
| CNC(=O)O[C@H]1O[C@@H](n2cnc3c(N[C@H]4C[C@@H]5C[C@@H]4C4SC45)ncnc32)[C@H](O)[C@@H]1O (stereo partly drawn) | 6.23 | 1.03 | 6.39 | 1.3 |
| C[Se]C[C@H]1O[C@@H](n2cnc3c(N[C@H]4C[C@@H]5C[C@@H]4C4SC45)ncnc32)[C@H](O)[C@@H]1O (stereo partly drawn) | 7.52 | 0.96 | 7.92 | 1.3 |
| CCNC(=O)[C@H]1O[C@@H](n2cnc3c(N[C@H]4C[C@@H]5C[C@@H]4C4SC45)ncnc32)[C@H](O)[C@@H]1O (stereo partly drawn) | 9.05 | 0.98 | 9.92 | 1.3 |
